Reference: patent US20220281841A1, “ETHYNYLHETEROCYCLES AS RHO-ASSOCIATED COILED-COIL KINASE (ROCK) INHIBITORS” (Angion Biomedica Corp., priority 2019, published 2022)
Structures can show the parent of a compound that is named as a salt. Where two headings read alike, the source gives them in different places.

Columns and labels:
ROCK1 = biological target: T1, ROCK1 (Homo sapiens, UniProt Q13464); experiment: ROCK1 kinase binding affinity, DiscoverX KINOMEscan KdELECT; settings: equilibrium dissociation constant, 11-point 3-fold dilution series
T1 construct: purchased DiscoverX (KINOMEscan KdELECT service); host or cells: E. coli BL21-derived (T7 phage) or HEK-293
T1 sequence (Q13464 whole entry): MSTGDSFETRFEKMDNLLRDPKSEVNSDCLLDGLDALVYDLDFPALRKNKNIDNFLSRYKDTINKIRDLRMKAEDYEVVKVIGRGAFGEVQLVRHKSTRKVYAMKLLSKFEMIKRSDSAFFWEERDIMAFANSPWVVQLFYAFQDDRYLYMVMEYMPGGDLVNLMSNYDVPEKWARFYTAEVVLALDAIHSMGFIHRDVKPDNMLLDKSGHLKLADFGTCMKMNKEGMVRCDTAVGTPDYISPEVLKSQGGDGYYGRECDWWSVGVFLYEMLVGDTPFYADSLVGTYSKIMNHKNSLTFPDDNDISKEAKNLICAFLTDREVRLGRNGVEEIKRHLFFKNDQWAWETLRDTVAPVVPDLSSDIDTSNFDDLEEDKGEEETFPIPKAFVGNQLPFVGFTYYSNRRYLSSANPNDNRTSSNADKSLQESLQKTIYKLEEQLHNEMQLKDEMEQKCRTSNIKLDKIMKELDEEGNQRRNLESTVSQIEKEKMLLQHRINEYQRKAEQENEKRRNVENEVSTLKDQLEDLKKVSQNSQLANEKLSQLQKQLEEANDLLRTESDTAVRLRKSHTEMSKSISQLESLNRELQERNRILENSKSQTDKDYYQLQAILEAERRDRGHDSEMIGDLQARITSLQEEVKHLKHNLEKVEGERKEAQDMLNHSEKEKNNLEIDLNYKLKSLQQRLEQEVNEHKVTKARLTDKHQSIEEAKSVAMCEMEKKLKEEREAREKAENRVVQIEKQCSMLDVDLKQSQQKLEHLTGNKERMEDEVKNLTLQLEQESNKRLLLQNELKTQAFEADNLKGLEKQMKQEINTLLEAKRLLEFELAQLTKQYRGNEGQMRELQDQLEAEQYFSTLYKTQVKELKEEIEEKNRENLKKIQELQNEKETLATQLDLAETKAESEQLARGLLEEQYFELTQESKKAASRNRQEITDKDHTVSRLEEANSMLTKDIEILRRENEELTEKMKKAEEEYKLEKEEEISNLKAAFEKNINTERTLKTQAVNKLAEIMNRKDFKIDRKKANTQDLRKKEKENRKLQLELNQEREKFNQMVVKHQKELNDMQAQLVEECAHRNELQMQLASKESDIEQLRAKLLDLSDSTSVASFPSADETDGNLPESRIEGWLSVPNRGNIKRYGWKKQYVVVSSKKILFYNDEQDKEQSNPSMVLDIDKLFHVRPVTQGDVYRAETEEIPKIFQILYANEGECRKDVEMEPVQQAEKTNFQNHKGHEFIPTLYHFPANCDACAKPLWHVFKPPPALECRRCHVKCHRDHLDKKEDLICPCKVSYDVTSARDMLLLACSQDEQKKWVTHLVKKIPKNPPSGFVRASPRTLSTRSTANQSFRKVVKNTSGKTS
Description: (§1) 1. ROCK1 and ROCK2 kinase assays: The ROCK1 and ROCK2 kinase binding affinities of compounds in this invention were determined by DiscoverX's KINOMEscan™ KdELECT technology (https://www.discoverx.com/kinomescan-elect-kinase-screening-and-profiling-services): Kinase-tagged T7 phage strains were prepared in an E. coli host derived from the BL21 strain. E. coli were grown to log-phase and infected with T7 phage and incubated with shaking at 32° C. until lysis. The lysates were centrifuged and filtered to remove cell debris. The remaining kinases were produced in HEK-293 cells and subsequently tagged with DNA for qPCR detection. Streptavidin-coated magnetic beads were treated with biotinylated small molecule ligands for 30 minutes at room temperature to generate affinity resins for kinase assays. The liganded beads were blocked with excess biotin and washed with blocking buffer (SeaBlock (Pierce), 1% BSA, 0.05% Tween 20, 1 mM DTT) to remove unbound ligand and to reduce nonspecific binding. […] Test compounds were prepared as 111X stocks in 100% DMSO. Kds were determined using an 11-point 3-fold compound dilution series with three DMSO control points. […] The compounds were then diluted directly into the assays such that the final concentration of DMSO was 0.9%. All reactions performed in polypropylene 384-well plate. Each was a final volume of 0.02 ml. […] The kinase concentration in the eluates was measured by qPCR.

ROCK2 = biological target: T2, ROCK2 (Homo sapiens, UniProt O75116); experiment: ROCK2 kinase binding affinity, DiscoverX KINOMEscan KdELECT; settings: for ROCK 2 Selectivity: ROCK2 over ROCK1, from Kd values, N/C = not calculated
T2 construct: purchased DiscoverX (KINOMEscan KdELECT service); host or cells: E. coli BL21-derived (T7 phage) or HEK-293
T2 sequence (O75116 whole entry): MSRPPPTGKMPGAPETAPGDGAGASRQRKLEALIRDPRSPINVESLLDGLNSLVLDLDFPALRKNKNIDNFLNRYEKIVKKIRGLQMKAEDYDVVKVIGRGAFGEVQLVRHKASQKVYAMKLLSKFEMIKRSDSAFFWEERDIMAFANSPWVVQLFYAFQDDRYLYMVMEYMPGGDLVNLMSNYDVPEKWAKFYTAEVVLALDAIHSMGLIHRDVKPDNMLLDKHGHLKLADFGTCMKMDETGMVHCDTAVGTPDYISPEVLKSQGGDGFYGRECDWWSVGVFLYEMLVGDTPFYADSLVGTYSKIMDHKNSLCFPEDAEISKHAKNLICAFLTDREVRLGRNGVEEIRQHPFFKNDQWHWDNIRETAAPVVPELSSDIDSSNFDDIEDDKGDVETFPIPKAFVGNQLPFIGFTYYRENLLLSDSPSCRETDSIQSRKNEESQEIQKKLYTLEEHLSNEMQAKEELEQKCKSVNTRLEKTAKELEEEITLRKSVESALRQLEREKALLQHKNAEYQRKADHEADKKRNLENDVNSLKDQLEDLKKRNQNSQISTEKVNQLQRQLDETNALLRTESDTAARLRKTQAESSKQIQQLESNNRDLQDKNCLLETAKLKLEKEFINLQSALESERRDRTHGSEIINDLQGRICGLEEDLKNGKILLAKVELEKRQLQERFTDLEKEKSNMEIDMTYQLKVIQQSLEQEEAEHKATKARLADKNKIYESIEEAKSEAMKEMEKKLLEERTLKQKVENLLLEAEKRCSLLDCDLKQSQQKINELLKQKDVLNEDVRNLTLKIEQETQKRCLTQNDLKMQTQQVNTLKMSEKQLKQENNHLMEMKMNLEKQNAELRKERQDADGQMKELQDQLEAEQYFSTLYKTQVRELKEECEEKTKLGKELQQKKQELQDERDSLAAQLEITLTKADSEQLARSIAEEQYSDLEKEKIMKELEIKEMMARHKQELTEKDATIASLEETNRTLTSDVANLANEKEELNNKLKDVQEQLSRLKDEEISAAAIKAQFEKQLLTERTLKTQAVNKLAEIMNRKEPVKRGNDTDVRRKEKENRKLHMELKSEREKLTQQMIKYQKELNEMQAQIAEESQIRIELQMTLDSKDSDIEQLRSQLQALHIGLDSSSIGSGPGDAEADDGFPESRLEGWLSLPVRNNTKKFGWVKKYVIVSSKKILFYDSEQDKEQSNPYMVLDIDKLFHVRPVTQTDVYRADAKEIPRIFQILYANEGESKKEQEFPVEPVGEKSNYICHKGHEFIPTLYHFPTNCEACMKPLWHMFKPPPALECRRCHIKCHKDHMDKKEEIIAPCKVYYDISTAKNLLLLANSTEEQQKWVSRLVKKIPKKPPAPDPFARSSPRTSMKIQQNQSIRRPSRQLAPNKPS
Description: as §1

[1] = equilibrium dissociation constant, 11-point 3-fold dilution series, read-out: Kd (μM) ROCK2

Row | Structure (SMILES) | Kd (ROCK1) [µM] | ROCK 2 Selectivity (ROCK2) | Kd (ROCK2; [1]) [µM] | Kd (ROCK2) [µM]
1 | CN(C)CCOc1ccc2c(c1)CN(c1nccc(-c3nccc(C#Cc4ccc5[nH]ncc5c4)n3)n1)C2 [Ex. 39, 2-((2-(4-((1H-Indazol-5-yl)ethynyl)-[2,4′-bipyrimidin]-2′-yl)isoindolin-5-yl)oxy)-N,N-dimethylethanamine] | 0.67 | 25.8 | 0.026 | –
2 | Fc1ccc2c(c1)CN(c1ccnc(-c3ccnc(C#Cc4ccc5[nH]ncc5c4)n3)n1)C2 [Ex. 34, 5-((4-(5-Fluoroisoindolin-2-yl)-[2,4′-bipyrimidin]-2′-yl)ethynyl)-1H-indazole] | 0.089 | 2.87 | 0.031 | –
3 | COCCOc1cc2c(cn1)CN(c1nccc(-c3nccc(C#Cc4ccc5[nH]ncc5c4)n3)n1)C2 [Ex. 37, 5-((2′-(6-(2-Methoxyethoxy)-1,3-dihydro-2H-pyrrolo[3,4-c]pyridin-2-yl)-[2,4′-bipyrimidin]-4-yl)ethynyl)-1H-indazole] | 5.7 | 51.8 | 0.11 | –
4 | Fc1ccc(C2CCN(c3nccc(-c4nccc(C#Cc5ccc6[nH]ncc6c5)n4)n3)CC2)cc1 [Ex. 56, 5-((2′-(4-(4-Fluorophenyl)piperidin-1-yl)-[2,4′-bipyrimidin]-4-yl)ethynyl)-1H-indazole] | 26 | 35.6 | 0.73 | –
5 | COC(=O)c1ccc(C2CN(c3nccc(-c4nccc(C#Cc5ccc6[nH]ncc6c5)n4)n3)C2)cc1 [Ex. 49, Methyl 4-(1-(4-((1H-indazol-5-yl)ethynyl)-[2,4′-bipyrimidin]-2′-yl)azetidin-3-yl)benzoate trifluoroacetate] | > 30 | >120 | 0.25 | –
6 | Fc1ccc(C2CCN(c3nccc(-c4nccc(C#Cc5ccc6[nH]ncc6c5)n4)n3)C2)cc1 (stereo not shown) [Ex. 71, 5-((2′-(3-(4-Fluorophenyl)pyrrolidin-1-yl)-[2,4′-bipyrimidin]-4-yl)ethynyl)-1H-indazole] | 13 | 36.1 | 0.36 | –
7 | O=C(COc1ccc2c(c1)CN(c1nccc(-c3nccc(C#Cc4ccc5[nH]ncc5c4)n3)n1)C2)NC1CC1 [Ex. 46, 2-((2-(4-((1H-Indazol-5-yl)ethynyl)-[2,4′-bipyrimidin]-2′-yl)isoindolin-5-yl)oxy)-N-cyclopropylacetamide trifluoroacetate] | 0.13 | 56.5 | 0.0023 | –
8 | Oc1cc2c(cn1)CN(c1nccc(-c3nccc(C#Cc4ccc5[nH]ncc5c4)n3)n1)C2 [Ex. 16, 2-(4-((1H-Indazol-5-yl)ethynyl)-[2,4′-bipyrimidin]-2′-yl)-2,3-dihydro-1H-pyrrolo[3,4-c]pyridin-6-ol] | > 6 | >23 | 0.26 | –
9 | O=C(O)c1ccc(C2CN(c3nccc(-c4nccc(C#Cc5ccc6[nH]ncc6c5)n4)n3)C2)cc1 [Ex. 51, 4-(1-(4-((1H-Indazol-5-yl)ethynyl)-[2,4′-bipyrimidin]-2′-yl)azetidin-3-yl)benzoic acid] | 11 | 73 | 0.15 | –
10 | Fc1ccc2c(c1)CN(c1nccc(-c3cccc(C#Cc4ccc5[nH]ncc5c4)n3)n1)C2 [Ex. 20, 5-((6-(2-(5-Fluoroisoindolin-2-yl)pyrimidin-4-yl)pyridin-2-yl)ethynyl)-1H-indazole] | > 30 | >5.4 | 5.5 | –
11 | CN(C)CCOc1ccc2c(c1)CN(c1nccc(-c3cccc(C#Cc4ccc5[nH]ncc5c4)n3)n1)C2 [Ex. 22, 2-((2-(4-(6-((1H-Indazol-5-yl)ethynyl)pyridin-2-yl)pyrimidin-2-yl)isoindolin-5-yl)oxy)-N,N-dimethylethanamine] | > 30 | >20 | 1.5 | –
12 | COCCN1CCN(c2cc3c(cn2)CN(c2nccc(-c4nccc(C#Cc5ccc6[nH]ncc6c5)n4)n2)C3)CC1 [Ex. 36, 5-((2′-(6-(4-(2-Methoxyethyl)piperazin-1-yl)-1,3-dihydro-2H-pyrrolo[3,4-c]pyridin-2-yl)-[2,4′-bipyrimidin]-4-yl)ethynyl)-1H-indazole trifluoroacetate salt] | 0.069 | 7.26 | 0.0095 | –
13 | Fc1ccc(N2CCN(c3nccc(-c4nccc(C#Cc5ccc6[nH]ncc6c5)n4)n3)CC2)cc1 [Ex. 53, 5-((2′-(4-(4-Fluorophenyl)piperazin-1-yl)-[2,4′-bipyrimidin]-4-yl)ethynyl)-1H-indazole] | 4.7 | 58.8 | 0.08 | –
14 | Fc1ccc2c(c1)CN(c1nccc(-c3cccc(C#Cc4cc(F)c5[nH]ncc5c4)n3)n1)C2 [Ex. 21, 7-Fluoro-5-((6-(2-(5-fluoroisoindolin-2-yl)pyrimidin-4-yl)pyridin-2-yl)ethynyl)-1H-indazole] | > 30 | >4.4 | – | 6.8
15 | COc1ccc2c(c1)CN(c1nccc(-c3nccc(C#Cc4ccc5c(N)nccc5c4)n3)n1)C2 [Ex. 4, 6-((2′-(5-Methoxyisoindolin-2-yl)-[2,4′-bipyrimidin]-4-yl)ethynyl)isoquinolin-1-amine] | > 30 | >3.66 | 8.2 | –

Now from value to compound, other results behind:

Row | Kd (ROCK1) [µM] | ROCK 2 Selectivity (ROCK2) | Kd (ROCK2; [1]) [µM] | Structure (SMILES) | Kd (ROCK2) [µM]
16 | > 30 | >411 | 0.073 | Fc1ccc2c(c1)CN(c1nccc(-c3nccc(C#Cc4ccc5[nH]nc(F)c5c4)n3)n1)C2 [Ex. 31, 3-Fluoro-5-((2′-(5-fluoroisoindolin-2-yl)-[2,4′-bipyrimidin]-4-yl)ethynyl)-1H-indazole] | –
17 | 2.8 | 4.37 | 0.64 | CN(C)C(=O)COc1cc2c(cn1)CN(c1nccc(-c3nccc(C#Cc4ccc5[nH]ncc5c4)n3)n1)C2 [Ex. 38, 2-((2-(4-((1H-indazol-5-yl)ethynyl)-[2,4′-bipyrimidin]-2′-yl)-2,3-dihydro-1H-pyrrolo[3,4-c]pyridin-6-yl)oxy)-N,N-dimethylacetamide] | –
18 | 13 | 118.2 | 0.11 | Oc1ccc(N2CCN(c3nccc(-c4nccc(C#Cc5ccc6[nH]ncc6c5)n4)n3)CC2)cc1 [Ex. 62, 4-(4-(4-((1H-Indazol-5-yl)ethynyl)-[2,4′-bipyrimidin]-2′-yl)piperazin-1-yl)phenol] | –
19 | > 30 | – | > 30 | COc1ccc2c(c1)CN(c1nccc(-c3nccc(C#Cc4ccc(C#N)cc4)n3)n1)C2 [Ex. 9, 4-((2′-(5-Methoxyisoindolin-2-yl)-[2,4′-bipyrimidin]-4-yl)ethynyl)benzonitrile] | –
20 | 16 | 21.3 | 0.75 | C(#Cc1ccnc(-c2ccnc(N3CCn4cnnc4C3)n2)n1)c1ccc2[nH]ncc2c1 [Ex. 59, 7-(4-((1H-Indazol-5-yl)ethynyl)-[2,4′-bipyrimidin]-2′-yl)-5,6,7,8-tetrahydro-[1,2,4]triazolo[4,3-a]pyrazine] | –
21 | > 30 | >273 | 0.11 | CN(C)C(=O)COc1ccc2c(c1)CN(c1nccc(-c3nccc(C#Cc4ccc5[nH]ncc5c4)n3)n1)C2 [Ex. 43, 2-((2-(4-((1H-Indazol-5-yl)ethynyl)-[2,4′-bipyrimidin]-2′-yl)isoindolin-5-yl)oxy)-N,N-dimethylacetamide] | –
22 | > 30 | – | > 30 | COc1ccc2c(c1)CN(c1nccc(-c3nccc(C#Cc4cn[nH]c4)n3)n1)C2 [Ex. 2, 2-(4-((1H-Pyrazol-4-yl)ethynyl)-[2,4′-bipyrimidin]-2′-yl)-5-methoxyisoindoline] | –
23 | 1.1 | 45.8 | 0.024 | CC1CN(c2ccc3c(c2)CN(c2nccc(-c4nccc(C#Cc5ccc6[nH]ncc6c5)n4)n2)C3)CCO1 (stereo not shown) [Ex. 41, 4-(2-(4-((1H-Indazol-5-yl)ethynyl)-[2,4′-bipyrimidin]-2′-yl)isoindolin-5-yl)-2-methylmorpholine] | –
24 | 3.4 | 10.3 | 0.33 | Cc1nnc2n1CCN(c1nccc(-c3nccc(C#Cc4ccc5[nH]ncc5c4)n3)n1)C2 [Ex. 64, 7-(4-((1H-Indazol-5-yl)ethynyl)-[2,4′-bipyrimidin]-2′-yl)-3-methyl-5,6,7,8-tetrahydro-[1,2,4]triazolo[4,3-a]pyrazine] | –
25 | 9.9 | 47.1 | 0.21 | FC(F)(F)c1nnc2n1CCN(c1nccc(-c3nccc(C#Cc4ccc5[nH]ncc5c4)n3)n1)C2 [Ex. 60, 7-(4-((1H-Indazol-5-yl)ethynyl)-[2,4′-bipyrimidin]-2′-yl)-3-(trifluoromethyl)-5,6,7,8-tetrahydro-[1,2,4]triazolo[4,3-a]pyrazine] | –
26 | 1.6 | 5 | 0.32 | C(#Cc1ccnc(-c2ccnc(N3CCN(c4ncc[nH]4)CC3)n2)n1)c1ccc2[nH]ncc2c1 [Ex. 58, 5-((2′-(4-(1H-Imidazol-2-yl)piperazin-1-yl)-[2,4′-bipyrimidin]-4-yl)ethynyl)-1H-indazole] | –
27 | 6.7 | 30.5 | 0.22 | Clc1ccc(C2CN(c3nccc(-c4nccc(C#Cc5ccc6[nH]ncc6c5)n4)n3)C2)cc1 [Ex. 57, 5-((2′-(3-(4-Chlorophenyl)azetidin-1-yl)-[2,4′-bipyrimidin]-4-yl)ethynyl)-1H-indazole] | –
